Consider three sequences from PMC9032346, “Identification of functionally important domains of human cytomegalovirus gO that act after trimer binding to receptors” (PLoS Pathogens, 2022).

One test deals with rabbits. Briefly: Immunization of rabbits with ova-conjugated peptides. In kind it is in vivo, New Zealand White rabbit. To be noted: peptides conjugated onto ovalbumin, sera after 3 rounds of immunization. The source says:
An overlapping peptide library spanning the entire length HCMV gO polypeptide from strain TR was obtained from Genscript Biotech, Piscataway, NJ. The peptides consisted of 20 amino acids in length with 7 amino acid overlap and a biotin moiety conjugated to the C-terminus. A panel of 8 a.a. peptides overlapping by 7 a.a. and a biotin moiety conjugated to the C-terminus that were derived from the protein sequences: 248-[…]-267 or 326-[…]-345 (S2 Table) were also obtained from Genscript Biotech. Peptides derived from the gO polypeptide sequence 235-[…]-267 (peptide 19/20 from overlapping library) and 326-[…]-345 (peptide 26 from overlapping library) were synthesized conjugated onto ovalbumin (ova). These ova-peptides were used to produce New Zealand White rabbit polyclonal sera by priming rabbits with ova-peptides in Freund’s adjuvant then boosting the rabbits with ova-peptides in TiterMax Gold adjuvant (Sigma, St. Louis, MO). Rabbit antibodies specific for peptide 20, 26 and ovalbumin were purified using peptides ova-20 and ova-26 or ova (without peptides) by coupling these proteins to AminoLink (Thermo Scientific).

The subject of test [1] is Abs present in HCMV seropositive human serum. Briefly: ELISA of biotinylated gO peptides with pooled human transplant sera. The note with it: biotin peptides 0.5 mM on streptavidin plates, pool of 5 sera diluted to NT100. In kind it is binding. The protocol: Fig 5 gO peptides recognized by Abs present in HCMV seropositive human serum. The panel of gO peptides with C-terminal biotin tags were incubated in the wells of streptavidin-coated ELISA plates. The wells were washed and then incubated with a pool of 5 different human sera from transplant patients that had been diluted to the NT100 titers. The plates were washed and incubated with goat-anti human-IgG-HRP for 1 h at room temperature, washed, and incubated with Turbo-TMB substrate. Control conditions included no peptide plus human sera (red bar) and wells coated with soluble trimer (instead of peptides) and human sera (green bar). The absorbance values are indicated on the y-axis and the numbers of the individual gO peptides are indicated on the x-axis.
For cell-based ELISA assays, ARPE-19 epithelial or fibroblast cells in 96-well plates were fixed with 4% paraformaldehyde, washed with PBS supplemented with 0.1M glycine pH.7.2, then washed with PBS plus 2% BSA and incubated with soluble trimers or gH/gL complexes at 10 μg/ml (or 20 μg/ml in the case of gO-417) in PBS with 2% BSA at room temperature for 1 h. […] The colorometric reaction was stopped by adding 100 μl of 1M sulfuric acid to the wells and then the substrate development was read in a Molecular Dynamics precision plate reader at a wavelength of 450 nm.
(ELISA stands for enzyme-linked immunosorbent assay.)

Test [2] relates to neutralizing Abs from human serum. Briefly: Depletion of neutralizing Abs from human sera, read out by HCMV neutralization on ARPE-19. In kind it is cell-based. The protocol:
Fig 7 gO peptides 20 and 26 deplete neutralizing Abs from human serum. (A) Pooled HCMV seropositive serum was diluted to (NT100) titers then incubated with either no protein, 1μg of soluble trimer, or gO peptides (with biotin): 20, 26, 32 or 33 (each at 0.5 mM) for 1 h at 37°C. […] The trimer was removed using nickel-agarose and peptides removed using streptavidin-agarose. The remaining Abs were tested in neutralization assays involving HCMV (BADrUL131) and ARPE-19 epithelial cells. The relative infectivity of HCMV after incubation with these sera was determined by counting GFP+ (infected) cells after 24 h of infection and compared to the numbers of infected cells following incubation of HCMV with similarly diluted sera from HCMV seronegative donors (sero-neg) Data was collected from three separate wells for each condition. (B and C) Two panels of 8 a.a. peptides with 7 a.a. overlap were derived from peptide 20 (B) or peptide 26 (C). These peptides were tested in depletion assays as in panel A. The relative infectivity of HCMV (BADrUL131) on ARPE-19 epithelial cells was determined and normalized to the level of HCMV infectivity with depletions performed with soluble trimer. Data was collected from a randomly selected field of the same surface area from each well.
These sera were then tested in HCMV neutralization assays as described above.

In the case of “FRVPKYINGTKLKNTMRKLKRKQAPVKEQSEKK [Peptide 19/20, peptide containing all of peptides 19 and 20 (a.a. 235-267), conjugated onto ovalbumin]”, the “induction of gO-specific NAbs in rabbits” value in the test with rabbits is “able to induce gO-specific NAbs”.
With “LRDLATWVYTTLRYRQNPFC [Peptide 26, gO (TR) a.a; 326-345, C-terminal biotin; also ova-conjugated for immunization]”, in test [1], the “binding of IgG from human transplant sera” value is recorded as “binding higher quantities of IgG compared with other peptides”. Also, in test [2] (pooled human transplant sera at NT100, 1 μg soluble trimer or 0.5 mM biotin peptide, 1 h 37°C, relative to seronegative sera, three wells), the “HCMV infectivity with sera after depletion” value was 45%. Besides, in the test with rabbits, the “induction of gO-specific NAbs in rabbits” value is given as “able to induce gO-specific NAbs”.
For “TTTPYSPYTTSTALNVTTNA [Peptide 22, gO (TR) a.a; 274-293, C-terminal biotin; negative control in depletion]”, the “binding of IgG from human transplant sera” value in test [1] is “did not bind substantial IgG”. Besides, the “depletion of NAbs from human sera” value in test [2] (pooled sera at NT100, 0.5 mM biotin peptide) is “retained complete neutralizing capacity”.
